In patent US9783511B2, “Carbamate benzoxazine propionic acids and acid derivatives for modulation of RORgamma activity and the treatment of disease” (Merck Sharp & Dohme Corp., priority 2013, dated 2017):

What follows are compounds tested against human RORgammaT-Ligand Binding Domain (LBD) (Homo sapiens (Human), UniProt P51449) (assay: RORγ-Ligand Binding Domain TR-FRET Assay (co-activator peptide SRC1_2 recruitment)). Conditions: HIS-tagged RORγ-LBD 3 nM, biotinylated SRC1 LXXLL peptide 100 nM, incubated overnight at 4° C., 665 nm/615 nm ratio.
Chain of human RORgammaT-Ligand Binding Domain (LBD) (P51449 269-508): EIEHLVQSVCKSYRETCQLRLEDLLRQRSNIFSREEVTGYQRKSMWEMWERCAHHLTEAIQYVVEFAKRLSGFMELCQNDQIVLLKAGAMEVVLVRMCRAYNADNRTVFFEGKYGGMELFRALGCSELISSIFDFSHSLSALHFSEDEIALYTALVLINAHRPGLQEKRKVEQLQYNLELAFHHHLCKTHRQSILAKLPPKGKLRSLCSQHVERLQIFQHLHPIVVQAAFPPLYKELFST
Assay type: biochemical
Source text: Activation of RORgammaT activity can be measured using, e.g., a biochemical TR-FRET assay. In such an assay, interaction of cofactor-derived peptides with human RORgammaT-Ligand Binding Domain (LBD) can be measured.
To identify novel antagonists of RORgammaT, an assay was developed which employs the interaction of RORgammaT with its co-activator peptide SRC1_2. […] The RORγ-Ligand Binding Domain TR-FRET Assay was run according to the following protocol.
HIS-tagged RORγ-LBD protein was recombinantly expressed in Escherichia coli. The RORγ-LBD protein was purified by Ni^2+-affinity resin. Purified protein was then diluted in assay buffer (50 mM Tris pH 7.0, 50 mM KCl, 1 mM EDTA, 0.1 mM DTT, 100 μg/mL bovine serum albumin, delipidated) to obtain a RORγ-LBD final concentration of 3 nM.
Compounds to be tested were injected to the 384-well assay plate using Acoustic Droplet Ejection technology by Echo 550 liquid handler (Labcyte, CA).

SMILES	IC50 [nM]
CC[C@H](C[C@H]1CN(S(=O)(=O)c2cn(CC)nc2OCCO)c2cc(NC(=O)OC(C)(C)C(F)(F)F)ccc2O1)C(=O)O (single isomer, unassigned) [Example 10L, (R or S)-2-(((S)-4-((1-ethyl-3-(2-hydroxyethoxy)-1H-pyrazol-4-yl)sulfonyl)-6-((((1,1,1-trifluoro-2-methylpropan-2-yl)oxy)carbonyl)amino)-3,4-dihydro-2H-benzo[b][1,4]oxazin-2-yl)methyl)butanoic acid]	49.5
CC[C@@H](C[C@H]1CN(S(=O)(=O)c2cn(CC)nc2OCCO)c2cc(NC(=O)OC(C)(C)C(F)(F)F)ccc2O1)C(=O)O (single isomer, unassigned) [Example 10N, (R or S)-2-(((S)-4-((1-ethyl-3-(2-hydroxyethoxy)-1H-pyrazol-4-yl)sulfonyl)-6-((((1,1,1-trifluoro-2-methylpropan-2-yl)oxy)carbonyl)amino)-3,4-dihydro-2H-benzo[b][1,4]oxazin-2-yl)methyl)butanoic acid]	67.2
COc1cc(S(=O)(=O)N2C[C@H](C[C@@](C)(O)C(=O)O)Oc3ccc(NC(=O)OC(C)(C)C(F)(F)F)cc32)ccc1F (single isomer, unassigned) [Example 18A, (R or S)-3-((S)-4-((4-fluoro-3-methoxyphenyl)sulfonyl)-6-((((1,1,1-trifluoro-2-methylpropan-2-yl)oxy)carbonyl)amino)-3,4-dihydro-2H-benzo[b][1,4]oxazin-2-yl)-2-hydroxy-2-methylpropanoic acid]	12.9
COc1cc(S(=O)(=O)N2C[C@H](C[C@](C)(O)C(=O)O)Oc3ccc(NC(=O)OC(C)(C)C(F)(F)F)cc32)ccc1F (single isomer, unassigned) [Example 18C, (R or S)-3-((S)-4-((4-fluoro-3-methoxyphenyl)sulfonyl)-6-((((1,1,1-trifluoro-2-methylpropan-2-yl)oxy)carbonyl)amino)-3,4-dihydro-2H-benzo[b][1,4]oxazin-2-yl)-2-hydroxy-2-methylpropanoic acid]	25
COc1cc(S(=O)(=O)N2C[C@H](CC(C)(CO)C(=O)O)Oc3ccc(NC(=O)OC(C)(C)C(F)(F)F)cc32)ccc1F (single isomer, unassigned) [Example 18J, (S or R)-3-((S)-4-((4-fluoro-3-methoxyphenyl)sulfonyl)-6-((((1,1,1-trifluoro-2-methylpropan-2-yl)oxy)carbonyl)amino)-3,4-dihydro-2H-benzo[b][1,4]oxazin-2-yl)-2-(hydroxymethyl)-2-methylpropanoic acid]	9.13

Now from value to compound:

IC50 [nM]	SMILES
13.3	CC[C@@H](C[C@H]1CN(S(=O)(=O)c2cccc(C3CC3)c2)c2cc(NC(=O)OC(C)(C)C(F)(F)F)ccc2O1)C(=O)O (single isomer, unassigned) [Example 10F, (R or S)-2-(((S)-4-((3-cyclopropylphenyl)sulfonyl)-6-((((1,1,1-trifluoro-2-methylpropan-2-yl)oxy)carbonyl)amino)-3,4-dihydro-2H-benzo[b][1,4]oxazin-2-yl)methyl)butanoic acid]
16	Cc1cc(S(=O)(=O)N2C[C@H](C[C@@H](C(=O)O)C3CC3)Oc3ccc(NC(=O)OC(C)(C)C(F)(F)F)cc32)ccc1F (single isomer, unassigned) [Example 10T, (R or S)-2-cyclopropyl-3-((S)-4-((4-fluoro-3-methylphenyl)sulfonyl)-6-((((1,1,1-trifluoro-2-methylpropan-2-yl)oxy)carbonyl)amino)-3,4-dihydro-2H-benzo[b][1,4]oxazin-2-yl)propanoic acid]
32.8	Cc1cc(S(=O)(=O)N2C[C@H](C[C@H](C(=O)O)C3CC3)Oc3ccc(NC(=O)OC(C)(C)C(F)(F)F)cc32)ccc1F (single isomer, unassigned) [Example 10X, (R or S)-2-cyclopropyl-3-((S)-4-((4-fluoro-3-methylphenyl)sulfonyl)-6-((((1,1,1-trifluoro-2-methylpropan-2-yl)oxy)carbonyl)amino)-3,4-dihydro-2H-benzo[b][1,4]oxazin-2-yl)propanoic acid]
